The source of these data is patent US9550738B2, “Bicyclic compounds as kinases inhibitors” (HangzhouDeRenYuCheng Biotechnology Ltd, priority 2012, dated 2017).

Molecules are shown by their SMILES.

Experiment [1] concerns the target T1, Btk (Homo sapiens, UniProt Q06187). The experiment is described as follows: In vitro Btk competition binding assay (kinase-tagged T7 phage, liganded affinity beads, qPCR readout). Set-up: made in house; host or cells: E. coli BL21-derived host (T7 phage display) or HEK-293 cells. As to conditions: 11-point 3-fold serial dilution, top concentration 10,000 nM, Hill slope -1. As to the method: An in vitro assay which determines the ability of a test compound to inhibit Btk.
Kinase-tagged T7 phage strains were prepared in an E. coli host derived from the BL21 strain. E. coli were grown to log-phase and infected with T7 phage and incubated with shaking at 32° C. until lysis. The lysates were centrifuged and filtered to remove cell debris. The remaining kinases were produced in HEK-293 cells and subsequently tagged with DNA for qPCR detection. Streptavidin-coated magnetic beads were treated with biotinylated small molecule ligands for 30 minutes at room temperature to generate affinity resins for kinase assays. The liganded beads were blocked with excess biotin and washed with blocking buffer (SeaBlock (Pierce), 1% BSA, 0.05% Tween 20, 1 mM DTT) to remove unbound ligand and to reduce non-specific binding. Binding reactions were assembled by combining kinases, liganded affinity beads, and test compounds in 1× binding buffer (20% SeaBlock, 0.17× PBS, 0.05% Tween 20, 6 mM DTT). All reactions were performed in polystyrene 96-well plates in a final volume of 0.135 ml. The assay plates were incubated at room temperature with shaking for 1 hour and the affinity beads were washed with wash buffer (1× PBS, 0.05% Tween 20). The beads were then re-suspended in elution buffer (1× PBS, 0.05% Tween 20, 0.5 μM non-biotinylated affinity ligand) and incubated at room temperature with shaking for 30 minutes. The kinase concentration in the eluates was measured by qPCR.
An 11-point 3-fold serial dilution of each test compound was prepared in 100% DMSO at 100× final test concentration and subsequently diluted to 1× in the assay (final DMSO concentration=1%). Kds were determined using a compound top concentration=10,000 nM. If the initial Kd determined was <0.5 nM (the lowest concentration tested), the measurement was repeated with a serial dilution starting at a lower top concentration.
Binding constants (Kds) were calculated with a standard dose-response curve using the Hill equation: Response=Background+(Signal−Background)/(1+(Kd^Hill Slope/Dose^Hill Slope)). The Hill Slope was set to −1. Curves were fitted using a non-linear least square fit with the Levenberg-Marquardt algorithm.
The following Table 1 lists compounds representative of the invention and their corresponding inhibitory activity against Btk.

The target in experiment [2] is T1, Btk. Nature of the experiment: Btk Ramos Cellular Assay (phosphorylation of the Btk substrate PLC gamma.2 after anti-IgM stimulation). Particulars: Ramos cells, 1 hour with compound at 1, 0.1, 0.01 or 0.001 μM, goat F(ab')2 Anti-Human IgM stimulation, blot for PLC gamma.2 phosphorylation; read-out: inhibition of Btk signaling in Ramos cellular assay, IC50. It is filed as cell-based. The method, then:
Ramos cells were grown in suspension in T225 flasks, spun down, resuspended in 50 mL serum-free media and incubated for 1 hour. Compound was added to Ramos cells in serum free media to a final concentration of 1, 0.1, 0.01, or 0.001 μM. Ramos cells were incubated with compound for 1 hour, washed again and resuspended in 100 μL serum-free media. Cells were then stimulated with 1 μg of goat F(ab′)2 Anti-Human IgM and incubated on ice for 10 minutes to activate B cell receptor signaling pathways. After 10 minutes, the cells were washed once with PBS and then lysed on ice with Invitrogen Cell Extraction buffer. Sixteen μg total protein from lysates was loaded on gels and blots were probed for phosphorylation of the Btk substrate PLC gamma.2.

T1 sequence (Q06187 whole entry, species assumed): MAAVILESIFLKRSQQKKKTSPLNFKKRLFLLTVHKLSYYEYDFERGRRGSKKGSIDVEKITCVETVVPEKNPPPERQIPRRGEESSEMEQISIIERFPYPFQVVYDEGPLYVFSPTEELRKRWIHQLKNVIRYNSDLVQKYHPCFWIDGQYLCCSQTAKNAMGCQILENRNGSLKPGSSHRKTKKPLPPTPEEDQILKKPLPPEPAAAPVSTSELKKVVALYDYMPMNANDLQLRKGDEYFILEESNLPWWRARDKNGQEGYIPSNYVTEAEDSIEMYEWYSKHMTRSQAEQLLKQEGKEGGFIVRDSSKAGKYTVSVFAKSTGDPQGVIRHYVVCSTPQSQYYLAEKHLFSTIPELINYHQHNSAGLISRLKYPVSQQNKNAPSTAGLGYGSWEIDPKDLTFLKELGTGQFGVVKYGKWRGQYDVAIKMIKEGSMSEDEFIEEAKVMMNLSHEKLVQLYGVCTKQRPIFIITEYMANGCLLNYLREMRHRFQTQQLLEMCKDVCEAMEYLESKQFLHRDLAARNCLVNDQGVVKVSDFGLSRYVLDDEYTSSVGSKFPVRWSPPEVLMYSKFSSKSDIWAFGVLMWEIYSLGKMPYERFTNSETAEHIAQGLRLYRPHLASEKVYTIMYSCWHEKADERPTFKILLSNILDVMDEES

As to `COc1cc2ncnc(Nc3ccc(Oc4ccccc4)cc3)c2cc1NC(=O)/C=C/CN(C)C` [Compound 27, (E)-4-(dimethylamino)-N-(7-methoxy-4-((4-phenoxyphenyl)amino)quinazolin-6-yl)but-2-enamide], the Kd (in general, the free concentration of one partner at which half of the binding sites on the other are occupied at equilibrium, for simple one-to-one binding) on Btk [1] is 2.2 nM. Also, the half-maximal inhibitory concentration (IC50) (usually the concentration that gives 50% inhibition) on Btk [2] was < 100 nM.

In the case of `CCOc1cc2ncnc(Nc3ccc(Oc4ccccc4)cc3)c2cc1NC(=O)/C=C/CN(C)C` [Compound 31, (E)-4-(dimethylamino)-N-(7-ethoxy-4-((4-phenoxyphenyl)amino)quinazolin-6-yl)but-2-enamide], on Btk [1], the affinity, expressed as Kd, was 2.6 nM. Also, at Btk [2], the IC50 was < 100 nM. Regarding `CN(C)C/C=C/C(=O)Nc1cc2c(Nc3ccc(Oc4ccccc4)cc3)ncnc2cc1O[C@H]1CCOC1` [Compound 35, (S,E)-4-(dimethylamino)-N-(4-((4-phenoxyphenyl)amino)-7-((tetrahydrofuran-3-yl)oxy)quinazolin-6-yl)but-2-enamide], the Kd at Btk [1] is < 100 nM.

At Btk [1], `C=CC(=O)Nc1cc2c(Nc3ccc(Oc4ccccc4)cc3)ncnc2cc1OC` [Compound 36, N-(7-methoxy-4-((4-phenoxyphenyl)amino)quinazolin-6-yl)acrylamide] registered a Kd of 2.3 nM. That is a single-digit nanomolar value. On the same count and under the same terms, then `C=CC(=O)Nc1cc2c(Nc3ccc(Oc4ccccc4)cc3)ncnc2cc1OCC` [Compound 37, N-(7-ethoxy-4-(4-phenoxyphenylamino)quinazolin-6-yl)acrylamide], with 1.2 nM; and `C=CC(=O)Nc1cc2c(Nc3ccc(Oc4ccccc4)cc3)ncnc2cc1O[C@H]1CCOC1` [Compound 38, (S)-N-(4-((4-phenoxyphenyl)amino)-7-((tetrahydrofuran-3-yl)oxy)quinazolin-6-yl)acrylamide], with < 100 nM.
